Assay results as given in patent US9248131B2, “Aquaporin modulators and methods of using them for the treatment of edema and fluid imbalance” (THE ARIZONA BOARD OF REGENTS ON BEHALF OF THE UNIVERSITY OF …, priority 2006, dated 2016).

How the values were obtained:
AQP4 = target: T1, AQP4 (Homo sapiens, UniProt P55087); experiment: Oocyte swelling assay: water permeability (Pf) of AQP4-expressing oocytes by videomicroscopy, block or % stimulation; format: cell-based
T1 construct: expressed in transfected cells; host or cells: Xenopus oocytes
T1 sequence (P55087 whole entry, species assumed): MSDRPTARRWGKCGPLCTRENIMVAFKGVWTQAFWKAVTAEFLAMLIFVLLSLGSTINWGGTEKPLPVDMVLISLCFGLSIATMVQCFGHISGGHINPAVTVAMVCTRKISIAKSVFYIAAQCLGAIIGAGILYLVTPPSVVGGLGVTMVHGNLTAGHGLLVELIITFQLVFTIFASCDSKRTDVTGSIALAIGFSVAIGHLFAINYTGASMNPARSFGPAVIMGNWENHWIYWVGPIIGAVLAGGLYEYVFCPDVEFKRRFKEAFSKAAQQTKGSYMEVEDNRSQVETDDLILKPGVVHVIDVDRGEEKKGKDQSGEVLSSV
Source text: A method for screening compounds for their ability to modulate aquaporin activity based on a water permeability assay in Xenopus oocytes expressing aquaporins which is used to identify, assess, and characterize compounds that either block or stimulate the aquaporin channels including AQP1, AQP4 and AQP9 channels.
Selection rationale and methodology. The ability of compounds, analogs and/or agents to block an aquaporin channel was quantified by videomicroscopic analyses of cross-sectional area of AQP-expressing oocytes as a function of time in a defined osmotic gradient, allowing the calculation of the water permeability factor (Pf), statistical evaluation of significant differences in the rate of water entry, and definition of dose response curves with IC50 values (concentration required for half-maximal block).
This compound evaluation method has been utilized with AQP1,-4,-5, and -9 channels. Observations of channel stimulation were made using the same assay method, however, the results were reported as % stimulation over control at a given concentration. […] TEA is known as a blocker of K^+ channel subtypes and nicotinic acetylcholine receptors. TEA sensitivity of AQP1 was removed by site-directed mutagenesis of tyrosine 186 to phenylalanine (Y186F) in the outer vestibule of the water pore, and confirmed that the inhibitory action of TEA is not due to nonspecific effects on endogenous channels (Brooks et al., 2000).

[1] = target: T2, native AQP4 in primary cultures of astroglia (Rattus norvegicus, UniProt P47863); experiment: Astroglial swelling in primary hippocampal cultures after 50% hypotonic saline; format: cell-based; conditions: 100 μM extracellular, 15 min preincubation
T2 construct: endogenous in cells; host or cells: rat primary hippocampal astroglial cultures
T2 sequence (P47863 whole entry): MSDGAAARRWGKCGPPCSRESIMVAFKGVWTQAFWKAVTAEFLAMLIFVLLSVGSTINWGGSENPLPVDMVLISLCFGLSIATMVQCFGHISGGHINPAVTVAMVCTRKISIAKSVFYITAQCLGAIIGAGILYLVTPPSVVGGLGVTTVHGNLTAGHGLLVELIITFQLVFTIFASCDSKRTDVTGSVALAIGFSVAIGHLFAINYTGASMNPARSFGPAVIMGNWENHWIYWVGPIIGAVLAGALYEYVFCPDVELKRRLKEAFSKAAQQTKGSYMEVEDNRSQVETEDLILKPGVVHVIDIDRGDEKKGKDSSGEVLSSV
Experimental: The role of native AQP4 as a target of block by bumetanide was tested in primary cultures of astroglia (FIG. 4). We compared the swelling responses of rat astroglial cells in primary hippocampal cultures after 15 min preincubation with or without drug. Swelling was induced by rapid perfusion of the culture plate with 50% hypotonic saline, either with or without extracellular bumetanide (100 μM) to match the preincubation condition. Glial cells were identified by morphological comparison with cells positive for a glial-specific marker (GFAP). Time-lapse images were taken at 15 second intervals before and during hypotonic challenge. The response was determined by the change in soma area as a function of time, as visualized by time-lapse digital imaging (Olympus MagnaFire™ camera and image acquisition software) using an inverted phase contrast microscope (Nikon); data were analyzed by Scion Image (NIH) software. Each culture was used for only one swelling trial. […]
FIG. 3 illustrates the protective effect of bumetanide on astroglial swelling in primary hippocampal cultures (14-15 days in vitro) after exposure to 50% hypotonic saline at time zero. Plot (left): Cell area visualized by phase contrast microscopy, standardized to the initial volume quantified by Scion Image (NIH) software. […]

[2] = test system: ischemia-induced cerebral edema (MCAO); conditions: cited from earlier work
[3] = target: T3, Na—K—Cl cotransporter (NKCC1) (Mus musculus, UniProt P55012); conditions: read-out: IC50 (half-maximal blocking concentration) against Na—K—Cl cotransporter; mouse kidney collecting duct cell line; cited from earlier work
T3 sequence (P55012 1-1205): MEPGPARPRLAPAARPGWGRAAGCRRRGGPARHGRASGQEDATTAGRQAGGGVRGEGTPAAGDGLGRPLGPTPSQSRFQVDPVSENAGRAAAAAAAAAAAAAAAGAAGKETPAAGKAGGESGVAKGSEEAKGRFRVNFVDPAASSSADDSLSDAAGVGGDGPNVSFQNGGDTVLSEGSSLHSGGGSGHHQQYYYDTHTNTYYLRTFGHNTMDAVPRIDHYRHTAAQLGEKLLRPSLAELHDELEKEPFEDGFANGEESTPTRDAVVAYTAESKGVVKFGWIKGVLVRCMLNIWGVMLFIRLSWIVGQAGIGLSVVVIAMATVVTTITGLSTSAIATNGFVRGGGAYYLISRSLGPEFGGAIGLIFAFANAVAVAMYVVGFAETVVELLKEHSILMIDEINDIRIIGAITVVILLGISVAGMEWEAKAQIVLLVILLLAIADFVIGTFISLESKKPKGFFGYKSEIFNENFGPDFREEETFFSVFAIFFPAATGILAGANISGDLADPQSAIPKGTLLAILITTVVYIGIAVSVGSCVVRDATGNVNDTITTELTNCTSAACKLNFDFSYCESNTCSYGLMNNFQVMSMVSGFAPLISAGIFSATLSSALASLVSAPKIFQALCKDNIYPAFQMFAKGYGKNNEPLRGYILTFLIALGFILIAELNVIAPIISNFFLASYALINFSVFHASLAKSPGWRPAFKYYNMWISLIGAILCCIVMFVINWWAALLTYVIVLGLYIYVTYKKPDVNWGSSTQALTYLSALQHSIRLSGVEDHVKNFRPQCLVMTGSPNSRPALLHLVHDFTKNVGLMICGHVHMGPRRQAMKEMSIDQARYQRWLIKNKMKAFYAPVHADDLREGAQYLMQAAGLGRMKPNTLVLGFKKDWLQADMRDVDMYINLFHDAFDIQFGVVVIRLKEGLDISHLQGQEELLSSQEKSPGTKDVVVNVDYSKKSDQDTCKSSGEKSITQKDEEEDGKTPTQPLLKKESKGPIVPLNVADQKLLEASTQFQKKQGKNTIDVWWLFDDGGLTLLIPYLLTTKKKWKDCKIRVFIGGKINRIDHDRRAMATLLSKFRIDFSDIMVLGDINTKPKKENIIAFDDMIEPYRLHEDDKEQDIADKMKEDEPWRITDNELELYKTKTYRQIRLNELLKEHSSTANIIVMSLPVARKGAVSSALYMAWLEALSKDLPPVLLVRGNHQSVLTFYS

CCCCNc1cc(C(=O)O)cc(S(N)(=O)=O)c1Oc1ccccc1 [bumetanide]
block of swelling rate in AQP4-expressing oocytes (AQP4; extracellular application): Dose-dependent block | block of swelling in AQP4-expressing oocytes (AQP4; internal injection into the oocyte (intracellular)): improved block at lower concentrations | glial initial swelling (soma area) [1]: reduced | regulatory volume decrease (RVD) [1]: reduced | ischemia-induced cerebral edema ([2]; 30-mg/kg dose, rats, MCAO): effectively reduced ischemia-induced cerebral edema | edema formation, magnetic resonance diffusion-weighted imaging ([2]; intravenous, first 3 hours of MCAO-induced cerebral ischemia): reduced edema formation | lowest effective dose ([2]; rats, MCAO, reduction of edema): 7.6 mg/kg | IC50 [3]: 330 nM
